In paper PMC9096754 (Scientific Reports, 2022):
Read-outs that look alike come from different tables or passages of the source. Values belong to the compound of their own block, whether it stands above or below them.

Columns and labels:
[1] = target: T1, PI3 Kinase (p110b/p85a) (Homo sapiens, UniProt P42338); test: PI3 Kinase (p110b/p85a) enzymatic HTRF assay (Eurofins Cerep 14-603KP); type: biochemical; conditions: for remaining activity at 30 µM: % kinase activity remaining
T1 construct: purchased Eurofins (Cerep), fee-for-service 14-603KP
T1 sequence (P42338 whole entry): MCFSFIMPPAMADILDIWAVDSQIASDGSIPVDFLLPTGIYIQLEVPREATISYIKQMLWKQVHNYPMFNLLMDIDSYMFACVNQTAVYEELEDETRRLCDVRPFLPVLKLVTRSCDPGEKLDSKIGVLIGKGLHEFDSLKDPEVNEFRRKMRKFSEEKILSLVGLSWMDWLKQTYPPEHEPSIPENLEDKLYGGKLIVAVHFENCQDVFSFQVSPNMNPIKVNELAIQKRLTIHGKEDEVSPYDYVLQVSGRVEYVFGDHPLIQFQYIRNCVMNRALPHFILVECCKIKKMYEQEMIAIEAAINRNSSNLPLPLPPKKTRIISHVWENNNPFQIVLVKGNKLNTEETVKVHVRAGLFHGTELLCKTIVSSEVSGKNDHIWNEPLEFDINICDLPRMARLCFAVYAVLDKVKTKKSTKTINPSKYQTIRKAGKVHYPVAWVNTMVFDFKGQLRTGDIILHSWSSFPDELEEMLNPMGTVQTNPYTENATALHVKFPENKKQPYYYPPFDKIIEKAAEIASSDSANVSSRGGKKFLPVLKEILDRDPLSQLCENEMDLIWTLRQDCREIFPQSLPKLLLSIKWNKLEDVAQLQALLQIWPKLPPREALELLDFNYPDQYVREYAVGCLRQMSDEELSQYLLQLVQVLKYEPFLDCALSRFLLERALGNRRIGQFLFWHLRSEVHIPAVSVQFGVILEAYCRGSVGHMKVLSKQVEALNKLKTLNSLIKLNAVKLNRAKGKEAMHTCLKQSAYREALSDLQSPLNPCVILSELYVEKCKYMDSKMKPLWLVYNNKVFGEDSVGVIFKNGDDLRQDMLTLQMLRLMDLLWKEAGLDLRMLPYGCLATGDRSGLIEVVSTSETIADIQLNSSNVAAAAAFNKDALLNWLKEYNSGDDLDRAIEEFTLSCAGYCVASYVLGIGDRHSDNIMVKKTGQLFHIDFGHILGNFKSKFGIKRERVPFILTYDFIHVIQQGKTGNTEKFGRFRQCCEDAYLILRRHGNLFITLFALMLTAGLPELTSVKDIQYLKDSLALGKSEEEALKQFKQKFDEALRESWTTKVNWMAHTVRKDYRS
T1 sequence (P27986 whole entry partner): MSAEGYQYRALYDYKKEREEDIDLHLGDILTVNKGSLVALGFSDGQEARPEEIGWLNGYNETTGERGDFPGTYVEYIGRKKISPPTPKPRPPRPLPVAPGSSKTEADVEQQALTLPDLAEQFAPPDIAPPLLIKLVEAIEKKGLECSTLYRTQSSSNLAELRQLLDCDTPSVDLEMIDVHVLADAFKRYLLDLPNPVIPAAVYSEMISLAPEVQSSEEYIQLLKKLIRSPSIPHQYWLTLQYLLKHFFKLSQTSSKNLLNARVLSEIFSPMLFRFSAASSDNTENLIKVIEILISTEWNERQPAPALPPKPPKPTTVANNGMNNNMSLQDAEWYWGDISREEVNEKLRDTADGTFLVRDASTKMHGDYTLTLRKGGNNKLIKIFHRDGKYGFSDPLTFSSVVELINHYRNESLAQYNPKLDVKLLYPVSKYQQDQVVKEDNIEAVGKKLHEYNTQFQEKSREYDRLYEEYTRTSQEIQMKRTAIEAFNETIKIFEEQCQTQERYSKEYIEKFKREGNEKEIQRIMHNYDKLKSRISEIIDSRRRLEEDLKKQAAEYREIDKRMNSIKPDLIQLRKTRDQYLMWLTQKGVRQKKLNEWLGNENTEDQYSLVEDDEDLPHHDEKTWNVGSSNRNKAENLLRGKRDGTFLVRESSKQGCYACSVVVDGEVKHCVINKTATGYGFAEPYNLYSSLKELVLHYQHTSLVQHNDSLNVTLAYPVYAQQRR
Description: Additional details on the conduct of in vitro assays are included in Supplementary Information S1. […]
PI3 Kinase (p110b/p85a). The enzyme was incubated in assay buffer containing 10 µM
phosphatidylinositol -4, 5-bispho sphate and Mg/A TP (200 µM). The reaction was initiated by
the addition of the Mg/ATP mixture. Afte r incubation for 30 minutes at 25 °C, the reaction was
terminated by the addition of a solution containing EDTA and biotinylated
phosphatidylinositol - 3,4,5-trisphosphate. Detection buffer containing europium -labelled anti -
GST monoclonal antibody, GST -tagged GRP1 PH domain and streptavidin -allophycocyanin
was added. Following, the plate was read in time-resolved fluorescence mode and the
homogeneous time -resolved fluorescence (HTRF) signal was determined according to the
formula HTRF = 10000 x (Em665 nm/Em6 20 nm). PI-103 was used as reference compound.
A primary screening in duplicated was carried out (30 µM) to determine the target activity. The
result was e xpres sed as a percentage of the positiv e control (i.e. % kinase activity remaining),
and the mean of the replicates was calculated. (Eurofins Cerep assay ID: 14 -603KP) […]
A primary screening in duplicated was carried out (30 µM) to determine the target

[2] = target: T2, human AA2AR (Homo sapiens, UniProt P29274); test: Adenosine A2A receptor (AA2AR) calcium flux assay in RBL-2H3 cells (Eurofins Cerep 86-0011P-2409AN); type: cell-based; conditions: top 30 μM, active if IC50 lower than 30 μM
T2 construct: host or cells: RBL-2H3

[3] = target: T3, Mouse recombinant iNOS (Mus musculus, UniProt P29477); test: Inducible NOS (iNOS) enzymatic assay (Eurofins Cerep 3185); type: biochemical
T3 construct: purchased Eurofins (Cerep), fee-for-service 3185; host or cells: Escherichia coli
Description: In vitro characterization was performed on a fee-for-service basis at Eurofins (www.eurofins.com) if the assay was commercially available. […] DTT) to remove unbound ligand and to reduce nonspecific binding. […] The analysis was carried on in polypropylene 384-well plates incubated at 25 °C with shaking for 1 h in a final volume of 20 μL. […] The kinase concentration in the eluates was measured by qPCR. […] The mixture was incubated for 90 minutes at 37 °C, followed by the addition of Griess reagent. The binding was determined by photometry at 545 nm. […] was used as reference compound. […] A primary screening in duplicated was carried out (30 μM) to determine the target activity. […] The reaction was initiated by the addition of the Mg/ATP mixture. Afte r incubation for 30 minutes at 25 °C, the reaction was terminated by the addition of a solution containing EDTA and biotinylated phosphatidylinositol - 3,4,5-trisphosphate. Detection buffer containing europium -labelled anti - GST monoclonal antibody, GST -tagged GRP1 PH domain and streptavidin -allophycocyanin was added. Following, the plate was read in time-resolved fluorescence mode and the homogeneous time -resolved fluorescence (HTRF) signal was determined according to the formula HTRF = 10000 x (Em665 nm/Em6 20 nm). PI-103 was used as reference compound. […] The binding was determined by Spectrofluorimetric quantitation of rhodamine 123 (Excitation: 485 nm, Emission: 535 nm). 2 -TEDC was used as a reference compound. A primary screening in duplicated was carried out (30 μM) to determine the target S4

[4] = target: T4, Epidermal growth factor receptor (EGFR) (Homo sapiens, UniProt P00533); test: Epidermal Growth Factor Receptor (EGFR) enzymatic radiometric assay (Eurofins Cerep 14-531KP); type: biochemical
T4 construct: purchased Eurofins (Cerep), fee-for-service 14-531KP
T4 sequence (P00533 25-1210): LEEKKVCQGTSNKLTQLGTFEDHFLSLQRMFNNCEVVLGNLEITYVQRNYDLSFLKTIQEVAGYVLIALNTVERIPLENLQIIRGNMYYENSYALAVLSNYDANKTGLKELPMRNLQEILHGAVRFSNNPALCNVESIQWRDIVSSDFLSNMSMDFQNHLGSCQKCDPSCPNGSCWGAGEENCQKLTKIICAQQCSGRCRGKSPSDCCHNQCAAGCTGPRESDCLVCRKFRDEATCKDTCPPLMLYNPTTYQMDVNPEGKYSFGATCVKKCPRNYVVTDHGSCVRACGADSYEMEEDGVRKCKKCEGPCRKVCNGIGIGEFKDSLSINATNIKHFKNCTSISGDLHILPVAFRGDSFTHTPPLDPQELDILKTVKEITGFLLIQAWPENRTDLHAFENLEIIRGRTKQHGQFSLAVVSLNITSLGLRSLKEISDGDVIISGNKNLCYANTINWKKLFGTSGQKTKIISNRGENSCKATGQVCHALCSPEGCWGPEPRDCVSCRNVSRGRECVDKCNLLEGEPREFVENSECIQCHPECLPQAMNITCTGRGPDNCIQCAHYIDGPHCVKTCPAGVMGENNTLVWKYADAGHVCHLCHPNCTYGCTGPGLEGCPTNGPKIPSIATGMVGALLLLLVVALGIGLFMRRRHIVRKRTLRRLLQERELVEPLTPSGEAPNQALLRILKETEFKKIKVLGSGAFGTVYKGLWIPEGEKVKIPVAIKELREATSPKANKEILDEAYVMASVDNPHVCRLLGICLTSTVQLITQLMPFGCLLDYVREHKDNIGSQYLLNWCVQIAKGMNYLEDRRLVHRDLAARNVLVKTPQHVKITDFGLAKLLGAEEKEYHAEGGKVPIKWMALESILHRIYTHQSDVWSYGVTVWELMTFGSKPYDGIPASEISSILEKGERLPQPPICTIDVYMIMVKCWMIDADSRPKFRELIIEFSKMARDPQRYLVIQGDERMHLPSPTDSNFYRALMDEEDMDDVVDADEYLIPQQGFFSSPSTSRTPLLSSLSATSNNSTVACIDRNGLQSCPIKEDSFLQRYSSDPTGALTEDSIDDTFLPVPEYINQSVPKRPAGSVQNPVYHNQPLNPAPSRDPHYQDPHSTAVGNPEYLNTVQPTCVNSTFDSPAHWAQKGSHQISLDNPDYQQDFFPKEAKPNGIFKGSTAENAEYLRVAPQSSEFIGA

[5] = target: T5, human PDE10A2 (Homo sapiens, UniProt Q9Y233); test: Phosphodiesterase 10A2 (PDE10A2) enzymatic assay (Eurofins Cerep 4080); type: biochemical
T5 construct: purchased Eurofins (Cerep), fee-for-service 4080; host or cells: Sf9
T5 sequence (Q9Y233 267-1055): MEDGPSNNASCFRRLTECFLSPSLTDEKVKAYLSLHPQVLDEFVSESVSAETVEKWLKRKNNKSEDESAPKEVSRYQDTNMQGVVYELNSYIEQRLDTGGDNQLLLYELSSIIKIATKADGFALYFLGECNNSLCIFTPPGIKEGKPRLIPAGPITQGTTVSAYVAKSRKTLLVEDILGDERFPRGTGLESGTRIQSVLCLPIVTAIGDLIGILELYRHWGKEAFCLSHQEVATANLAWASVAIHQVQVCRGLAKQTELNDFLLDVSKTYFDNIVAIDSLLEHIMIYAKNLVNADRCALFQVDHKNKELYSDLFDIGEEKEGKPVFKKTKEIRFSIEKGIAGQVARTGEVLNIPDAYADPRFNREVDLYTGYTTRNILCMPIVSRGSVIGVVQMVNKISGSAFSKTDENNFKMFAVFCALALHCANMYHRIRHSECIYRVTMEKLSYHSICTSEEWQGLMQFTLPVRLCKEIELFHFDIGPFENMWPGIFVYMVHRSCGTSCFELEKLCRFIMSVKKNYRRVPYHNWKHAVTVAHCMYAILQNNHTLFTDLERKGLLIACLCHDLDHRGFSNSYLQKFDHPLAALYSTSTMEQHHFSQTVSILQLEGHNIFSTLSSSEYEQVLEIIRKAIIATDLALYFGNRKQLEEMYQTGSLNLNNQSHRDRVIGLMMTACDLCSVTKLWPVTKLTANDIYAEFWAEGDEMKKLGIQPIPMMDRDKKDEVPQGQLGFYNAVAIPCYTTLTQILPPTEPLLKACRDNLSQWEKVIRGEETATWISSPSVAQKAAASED
Description: In vitro characterization was performed on a fee-for-service basis at Eurofins (www.eurofins.com) if the assay was commercially available.
Additional details on the conduct of in vitro assays are included in Supplementary Information S1.
The IC50 value and the standard error of the mean (SEM) were determined by a non-linear, least squares regression analysis using GraphPad Prism Version 9.0.2 for Macintosh (GraphPad Software, San Diego, California USA, https://www.graphpad.com). The dose–response curve was plotted using RStudio Team (2020), v. 1.3.1073 (RStudio, PBC, Boston, MA, http://www.rstudio.com/). […]
(§1) formation of 5’AMP from cAMP using human recombinant enzyme e xpressed in Sf9 cells.
(§2) The test compound was added to a buffer containing 40 mM Tris/HCl (pH 7. 4), 8 mM MgCl2, and 0. 2 µM [3H]cAMP + cAMP. Thereafter, enzyme (about 0. 8 U) wa s added and the mixture incubated for 20 minutes at 25 °C. SPA beads were added and the mixture was maintained at 25 °C for 30 minutes under shaking. [3H]5’AMP was quantified via scintillation counting. The […]
used as standard inhibitory reference compound. A primary screening in duplicated was carried out (30 µM) to determine the target activity.
(100 µM highest concentration and dilution factor in a log-scale) in triplicate for dose-respons e

[6] = target: PKN2 (human) (Homo sapiens, UniProt Q16513); test: biochemical
Sequence of PKN2 (human) (Q16513 whole entry): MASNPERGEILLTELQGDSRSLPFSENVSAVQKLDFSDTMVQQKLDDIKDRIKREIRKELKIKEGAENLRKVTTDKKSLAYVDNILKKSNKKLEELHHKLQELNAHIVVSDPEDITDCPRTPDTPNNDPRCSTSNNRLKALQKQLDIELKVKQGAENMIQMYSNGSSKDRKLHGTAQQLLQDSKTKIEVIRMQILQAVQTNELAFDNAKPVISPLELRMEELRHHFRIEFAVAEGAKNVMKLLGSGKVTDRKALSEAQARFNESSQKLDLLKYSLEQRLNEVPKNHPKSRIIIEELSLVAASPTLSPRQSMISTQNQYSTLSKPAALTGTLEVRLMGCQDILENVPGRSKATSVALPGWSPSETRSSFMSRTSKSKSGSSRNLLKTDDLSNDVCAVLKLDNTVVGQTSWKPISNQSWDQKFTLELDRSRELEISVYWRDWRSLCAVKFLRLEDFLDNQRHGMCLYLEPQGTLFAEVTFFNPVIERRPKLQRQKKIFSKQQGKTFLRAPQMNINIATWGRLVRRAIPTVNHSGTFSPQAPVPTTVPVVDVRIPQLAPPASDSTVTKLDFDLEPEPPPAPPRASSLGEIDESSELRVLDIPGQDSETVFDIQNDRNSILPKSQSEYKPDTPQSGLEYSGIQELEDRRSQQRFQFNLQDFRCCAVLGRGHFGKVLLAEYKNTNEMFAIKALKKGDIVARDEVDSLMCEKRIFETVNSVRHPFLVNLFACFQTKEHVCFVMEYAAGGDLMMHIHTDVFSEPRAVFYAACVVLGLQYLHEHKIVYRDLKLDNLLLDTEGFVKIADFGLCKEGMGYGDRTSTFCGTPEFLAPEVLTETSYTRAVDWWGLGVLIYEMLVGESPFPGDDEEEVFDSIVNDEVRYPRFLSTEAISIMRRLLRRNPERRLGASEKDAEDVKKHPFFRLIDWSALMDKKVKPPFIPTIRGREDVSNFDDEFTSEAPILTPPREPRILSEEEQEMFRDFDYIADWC

[7] = test system: PDE10A; design: method as in printed at the sentence; conditions: PDE10A inhibitor, papaverine analog; ref not given; cited from earlier work
[8] = target: T6, Human recombinant 15-ALOX (Homo sapiens, UniProt P16050); test: Arachidonate 15-lipoxygenase (15-ALOX) enzymatic assay (Eurofins Cerep 199017); type: biochemical
T6 construct: purchased Eurofins (Cerep), fee-for-service 199017; host or cells: E. coli
T6 sequence (P16050 1-662): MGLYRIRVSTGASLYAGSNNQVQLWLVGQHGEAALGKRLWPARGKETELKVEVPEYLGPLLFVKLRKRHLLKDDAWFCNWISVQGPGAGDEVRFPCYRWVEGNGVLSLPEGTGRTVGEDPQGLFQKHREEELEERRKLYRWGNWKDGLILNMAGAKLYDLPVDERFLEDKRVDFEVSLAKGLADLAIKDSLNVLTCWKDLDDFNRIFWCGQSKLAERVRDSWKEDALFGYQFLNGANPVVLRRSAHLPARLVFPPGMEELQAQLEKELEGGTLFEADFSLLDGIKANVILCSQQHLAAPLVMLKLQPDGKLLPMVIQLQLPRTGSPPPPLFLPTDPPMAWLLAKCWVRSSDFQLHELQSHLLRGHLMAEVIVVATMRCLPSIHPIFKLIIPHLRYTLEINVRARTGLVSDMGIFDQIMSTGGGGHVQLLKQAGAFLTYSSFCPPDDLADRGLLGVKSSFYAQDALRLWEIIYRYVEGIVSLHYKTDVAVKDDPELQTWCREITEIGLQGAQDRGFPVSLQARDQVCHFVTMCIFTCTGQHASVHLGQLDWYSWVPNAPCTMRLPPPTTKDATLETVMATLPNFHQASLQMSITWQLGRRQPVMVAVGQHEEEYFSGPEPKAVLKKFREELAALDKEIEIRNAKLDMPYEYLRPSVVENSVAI

[9] = target: T7, human ADORA3 (Homo sapiens, UniProt P0DMS8); test: Adenosine A3 receptor (ADORA3) functional cAMP HTRF assay in CHO cells (Eurofins Cerep G107); type: cell-based; conditions: 8 concentrations, top 30 μM, active if IC50 lower than 30 μM
T7 construct: host or cells: CHO
T7 sequence (P0DMS8 1-318): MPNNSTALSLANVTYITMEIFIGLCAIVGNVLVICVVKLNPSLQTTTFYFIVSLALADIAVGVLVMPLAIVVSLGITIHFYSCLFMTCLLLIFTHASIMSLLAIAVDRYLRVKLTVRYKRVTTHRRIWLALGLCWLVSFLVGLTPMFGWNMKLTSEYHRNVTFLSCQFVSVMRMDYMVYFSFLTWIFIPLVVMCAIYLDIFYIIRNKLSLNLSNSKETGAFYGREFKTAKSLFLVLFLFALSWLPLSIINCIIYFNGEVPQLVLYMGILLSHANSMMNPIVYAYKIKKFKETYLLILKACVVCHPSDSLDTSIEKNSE
Description: In vitro characterization was performed on a fee-for-service basis at Eurofins (www.eurofins.com) if the assay was commercially available. […]
tested at 8 concentrations (100 µM a s the highest concentration and dilution factor in a log-scale) in triplicate for dose-response curve and IC50 determination. (Eurofins Cerep assay ID: […]
as §1, §2
used as standard inhibitory reference compound. […]
Functional activity of ADORA3 was evaluated in CHO cells transfected with human […]
(100 nM IB-MECA) in a first assay, and in a second one with […] (10 nM IB -ME CA) for 20 minutes at 37 °C, and formation of cAMP was determined by homogeneous time resolved fluorescence (HTRF) at lex=337 nm and lem=620 and 665 nm using a microplate reader (Envison, Perkin Elmer). The cAMP concentration was determined by dividing the […]
signal measured at 665 nm by that measured at 620 nm (ratio). […]

[10] = tested at 30 μM, active if IC50 lower than 30 μM

inhibition at 30 µM ([1]; 30 µM, mean of n=2, read-out: % inhibition (mean) activity, PI3Kbeta (p110b/p85a)): 4%
remaining activity at 30 µM ([1]; 30 µM, replicate 1, read-out: % inhibition of control activity (1st), measured as % of positive control activity, PI3Kbeta (p110b/p85a)): 92%
remaining activity at 30 µM ([1]; 30 µM, replicate 2, read-out: % inhibition of control activity (2nd), measured as % of positive control activity, PI3Kbeta (p110b/p85a)): 99%
IC50 (μM), PI3 Kinase (p110b/p85a) [1, 10]: Inactive
IC50 (μM), AA2AR, antagonistic effect ([2]; antagonistic effect): Inactive
inhibition at 30 µM ([3]; mean of n=2, read-out: % inhibition (mean) activity, iNOS): 5%
inhibition at 30 µM ([3]; replicate 1, read-out: % inhibition of control activity (1st), iNOS): 6%
inhibition at 30 µM ([3]; replicate 2, read-out: % inhibition of control activity (2nd), iNOS): 4%
IC50 (μM), iNOS [3, 10]: Inactive
inhibition at 30 µM ([4]; 30 µM, mean of n=2): 21%
IC50 (μM), EGFR [4, 10]: Inactive
inhibition at 30 µM ([5]; mean of n=2, read-out: % inhibition (mean) activity, PDE10A2): 44.8%
inhibition at 30 µM ([5]; replicate 1, read-out: % inhibition of control activity (1st), PDE10A2): 45.5%
inhibition at 30 µM ([5]; replicate 2, read-out: % inhibition of control activity (2nd), PDE10A2): 44%
IC50 ([5]; dose–response, 8 concentrations, top 100 μM, triplicate, mean ± SEM): 28 ± 2 µM
Ki ([5]; estimated from experimental IC50, Cheng and Prusoff): 6.1 µM
inhibition at 30 µM ([6]; read-out: % inhibition (mean) activity, PRK2): 98%
remaining activity at 30 µM ([6]; read-out: % inhibition of control activity (1st), measured as % of positive control activity, PRK2): 1%
remaining activity at 30 µM ([6]; read-out: % inhibition of control activity (2nd), measured as % of positive control activity, PRK2): 2%
Compound: CCS(=O)(=O)N1CC(CC#N)(n2cc(-c3ncnc4[nH]ccc34)cn2)C1 [Baricitinib]

Compound: COc1cc2ncnc(N3CC[C@@H](Oc4cnc5ccccc5n4)C3)c2cc1OC [PQ-10]
IC50 [7]: 6 µM

IC50 (μM), 15-ALOX ([8]; 30 μM screen, follow-up 8 concentrations top 100 μM, triplicate, active if IC50 lower than 30 μM): Inactive
inhibition at 30 µM ([8]; mean of n=2, read-out: % inhibition (mean) activity, 15-LOX-1): 27%
inhibition at 30 µM ([8]; replicate 1, read-out: % inhibition of control activity (1st), 15-LOX-1): 19.3%
inhibition at 30 µM ([8]; replicate 2, read-out: % inhibition of control activity (2nd), 15-LOX-1): 34%
IC50 (μM), AA2AR, agonistic effect ([2]; agonistic effect (footnote c)): Inactive
IC50 (μM), ADORA3, antagonistic and agonistic effect [9]: Inactive
Compound: C[C@@H]1CCN(C(=O)CC#N)C[C@@H]1N(C)c1ncnc2[nH]ccc12 [Tofacitinib]
